Source: PMC11530130, “Peripherally restricted PICK1 inhibitor mPD5 ameliorates pain behaviors in murine inflammatory and neuropathic pain models” (JCI Insight, 2024)
Values joined by “and” are separate entries in the source; they are usually repeats but may differ in a detail not shown here. Equal values may be shown once.

System: naive mice
Test: Hot water tail immersion (tail-flick) test
Type: in vivo, mouse
Conditions: for tail-flick time, individual mice: water of 49°C, hr 1, male and female
Protocol: To compare pain-relevant vocalizations, only short and constant USVs of 37 kHz were counted […]
Tail-Flick immersion test
Naïve wildtype male and female mice (10 weeks of age) were habituated to handling and experimental set up for one week prior to data collection. On the day of data collection, a baseline measurement was performed prior to injection of compounds. One measurement consisted of immersion of 2/3rds of the tail in water (49 °C) for maximum ten seconds, three times with an interval of ten seconds between each measurement using the mean of the three measurements. After baseline, mice were injected s.c. with mPD5 10 μmol/kg mPD5, 10 mg/kg morphine (RH Pharmacy, Denmark, Vnr. 475249), or sterile PBS one hour before undergoing the tail-flick hot water immersion assay again.
Mice were pretreated with 10 μmol/kg mPD5, 10 mg/kg morphine (RH Pharmacy, Denmark, Vnr. 475249), or PBS 45 min before habituation to observation container (glass cylinder surrounded by mirrors on 2 sides) for 15 min. Mice then received an intraplantar injection of 20 µl capsaicin (1.6 ug/paw) (sigma CAS Number:404-86-4, diluted with 1:1:8 solution of tween-20, 70% ethanol, and MilliQ water) in one hind paw and were reintroduced to the observation container. Mice were recorded for three min after i.pl. injection with capsaicin and euthanized the same day. Mice were scored manually for the amount of time spent paw licking within three min after capsaicin administration.
Mice were 10 weeks old at the beginning of the experiment and acclimatized to the animal facility for two weeks after arrival. Male mice were randomized into two groups (n = 8/group) and weighed and injected s.c. once daily (between 3 pm and 4 pm) for 14 days with sterile PBS or 10 μmol/kg mPD5 (diluted in sterile PBS and pH adjusted to 7.4). After 14 days of dosing, the males were paired with female mice in fresh cages, and the number of pubs counted for 35 days (males were removed from the breeding cages after 14 days). Following the 14 days mating period, males were sacrificed by cervical dislocation caudae epidymidis were removed and weighed. Caudae epidymidis were cut into smaller pieces in 2 mL PBS (37 °C) and incubated (37 °C, 5% CO2) for 15 min. Following incubation, the mix was swirled gently, and 0.5 mL of the liquid was transferred to room tempered PBS to achieve a final volume of 1 mL.
Subsequently, sperm count was determined by transferring 50 µL of the sample to a hemocytometer, and each sample was determined in duplicate by an experimenter blinded to drug treatment. Following criteria were assessed: mobility (forward and circular), local tail mobility and total number. Females were weighed on a regular basis from removal of the males […]
Unless otherwise stated, all data were analysed using GraphPad Prism 9.4.1. and presented as mean +-SEM with the significance level set to p < 0.05. For locomotion and elevated plus maze, Ethovision XT 13 (Noldus) was used to track the distance travelled by each animal. For within group analysis (i.e., von Frey experiments), two-way ANOVA followed by Dunnett’s post hoc test was used. For between group analysis of multiple time points (i.e., locomotion experiments), two-way ANOVA was used without post hoc test due to lack of treatment significance in the ANOVA test. For the limb use experiment, data pre versus post treatment was analysed with a Kruskal Wallis test due to the non-parametric nature of the data. […]

| SMILES | tail-flick time, individual mice (10 mg/kg, female mice) | tail-flick time, individual mice (10 mg/kg, male mice) | effect on tail-flick latency compared with baseline (naive mice, both sexes, s.c. 10 μmol/kg) | tail-flick time, individual mice (10 umol/kg, female mice) | tail-flick time, individual mice (10 umol/kg, male mice) |
| --- | --- | --- | --- | --- | --- |
| CN1CC[C@]23c4c5ccc(O)c4O[C@H]2[C@@H](O)C=C[C@H]3[C@H]1C5 [morphine] | 10 | 10 (2×) and 6 and 7 |  |  |  |
| CCCCCCCCCCCCCC(=O)N(CCOCCOCCC(=O)N[C@@H](Cc1c[nH]cn1)C(=O)N[C@@H](Cc1c[nH]c2ccccc12)C(=O)N[C@@H](CC(C)C)C(=O)N[C@@H](CCCCN)C(=O)N[C@H](C(=O)O)C(C)C)CCOCCOCCC(=O)N[C@@H](Cc1c[nH]cn1)C(=O)N[C@@H](Cc1c[nH]c2ccccc12)C(=O)N[C@@H](CC(C)C)C(=O)N[C@@H](CCCCN)C(=O)N[C@H](C(=O)O)C(C)C [mPD5, myristoyl-NPEG4-(HWLKV)2] |  |  | no effect on tail-flick latency | 3 and 4 (2×) and 5 | 3 (2×) and 2 and 4 |
